Here are results for 30 molecules from patent US8110571B2, “Benzimidazole and benzothiazole derivatives, method for preparing same, use thereof as drugs, pharmaceutical compositions and novel use especially as c-MET inhibitors” (Aventis Pharma S.A., priority 2005, dated 2012).

Where a name gives a salt, the structure may show the parent alone.

What is called melting point is the temperature of the solid-liquid transition. The molecule `Cc1cccc(Cl)c1S(=O)(=O)Oc1ccc2[nH]c(NC(=O)NCCN3CCOCC3)nc2c1` [Example 11, 2-{[(2-Morpholin-4-ylethyl)carbamoyl]amino}-1H-benzimidazol-5-yl 2-chloro-6-methylbenzenesulfonate] registered a melting point of 168 °C. Next, `CN1CCN(CCNC(=O)Nc2nc3ccc(OS(=O)(=O)c4c(Cl)cccc4Cl)cc3s2)CC1` (as salt: benzenesulfonate) [Example 60, 2-({[2-(4-methylpiperazin-1-yl)ethyl]carbamoyl}amino)-1,3-benzothiazol-6-yl 2,6-dichlorobenzenesulfonate]: 100 °C; `O=C(NCCc1cccnc1)Nc1nc2cc(OS(=O)(=O)c3c(Cl)cccc3Cl)ccc2[nH]1` (as salt: benzenesulfonate) [Example 19, 2-{[(2-Pyridin-3-ylethyl)carbamoyl]amino}-1H-benzimidazol-5-yl 2,6-dichlorobenzenesulfonate]: 131 °C; `CN(C)CCCNC(=O)Nc1nc2ccc(OS(=O)(=O)c3c(Cl)cccc3Cl)cc2s1` (as salt: benzenesulfonate) [Example 62, 2-({[3-(dimethylamino)propyl]carbamoyl}amino)-1,3-benzothiazol-6-yl 2,6-dichlorobenzenesulfonate]: 100 °C. `O=C(NCCN1CCOCC1)Nc1nc2cc(OS(=O)(=O)c3c(Cl)cccc3Cl)ccc2[nH]1` (as salt: benzenesulfonate) [Example 5, 2-{[(2-Morpholin-4-ylethyl)carbamoyl]amino}-1H-benzimidazol-5-yl 2,6-dichlorobenzenesulfonate] yielded a melting point of 149 °C. Next, `CN(CCCNC(=O)Nc1nc2ccc(OS(=O)(=O)c3c(Cl)cccc3Cl)cc2s1)c1ccccc1` (as salt: benzenesulfonate) [Example 54, 2-[({3-[methyl(phenyl)amino]propyl}carbamoyl)amino]-1,3-benzothiazol-6-yl 2,6-dichlorobenzenesulfonate]: 68 °C; `O=C(NCc1ccncc1)Nc1nc2cc(OS(=O)(=O)c3c(Cl)cccc3Cl)ccc2[nH]1` (as salt: benzenesulfonate) [Example 17, 2-{[(Pyridin-4-ylmethyl)carbamoyl]amino}-1H-benzimidazol-5-yl 2,6-dichlorobenzenesulfonate]: 165 to 170 °C; `O=C(NCCN1CCCCCC1)Nc1nc2ccc(OS(=O)(=O)c3c(Cl)cccc3Cl)cc2s1` (as salt: benzenesulfonate) [Example 76, 2-{[(2-azepan-1-ylethyl)carbamoyl]amino}-1,3-benzothiazol-6-yl 2,6-dichlorobenzenesulfonate]: 146 °C.

In the case of `O=C(CCC1CCN(C(=O)c2ccccc2)CC1)Nc1nc2cc(OS(=O)(=O)c3c(Cl)cccc3Cl)ccc2[nH]1` (as salt: benzenesulfonate) [Example 26, 2-{[3-(1-Benzoylpiperidin-4-yl)propanoyl]amino}-1H-benzimidazol-5-yl 2,6-dichlorobenzenesulfonate], the melting point turned out to be 135 °C. The molecule `CN(C)c1ccc(CNC(=O)Nc2nc3ccc(OS(=O)(=O)c4c(Cl)cccc4Cl)cc3s2)cc1` (as salt: benzenesulfonate) [Example 66, 2-({[4-(dimethylamino)benzyl]carbamoyl}amino)-1,3-benzothiazol-6-yl 2,6-dichlorobenzenesulfonate] showed a melting point of 154.5 °C. The same measure for `O=C(NCCN1CCNCC1)Nc1nc2ccc(OS(=O)(=O)c3c(Cl)cccc3Cl)cc2s1` (as salt: benzenesulfonate) [Example 36, 2-{[(2-piperazin-1-ylethyl)carbamoyl]amino}-1,3-benzothiazol-6-yl 2,6-dichlorobenzenesulfonate]: 158 °C; for `CC(C)NC(=O)Nc1nc2ccc(OS(=O)(=O)c3c(Cl)cccc3Cl)cc2s1` (as salt: benzenesulfonate) [Example 74, 2-[(isopropylcarbamoyl)amino]-1,3-benzothiazol-6-yl 2,6-dichlorobenzenesulfonate]: 169 °C. In turn, `O=C(NCc1cccnc1)Nc1nc2ccc(OS(=O)(=O)c3c(Cl)cccc3Cl)cc2s1` (as salt: benzenesulfonate) [Example 78, 2-{[(pyridin-3-ylmethyl)carbamoyl]amino}-1,3-benzothiazol-6-yl 2,6-dichlorobenzenesulfonate] registered a melting point of 227 °C. `O=C(NCCN1CCN(Cc2ccccc2)CC1)Nc1nc2ccc(OS(=O)(=O)c3c(Cl)cccc3Cl)cc2s1` (as salt: benzenesulfonate) [Example 34, 2-({[2-(4-Benzylpiperazin-1-yl)ethyl]carbamoyl}amino)-1,3-benzothiazol-6-yl 2,6-dichlorobenzenesulfonate] registered a melting point of 102 °C.

Molecule `O=C(NCCN1CCCCC1)Nc1nc2ccc(OS(=O)(=O)c3c(Cl)cccc3Cl)cc2s1` (as salt: benzenesulfonate) [Example 64, 2-{[(2-piperidin-1-ylethyl)carbamoyl]amino}-1,3-benzothiazol-6-yl 2,6-dichlorobenzenesulfonate] came in with a melting point of 172 °C. For the molecule `O=C(CCN1CCOCC1)Nc1nc2ccc(OS(=O)(=O)c3c(Cl)cccc3Cl)cc2s1` (as salt: benzenesulfonate) [Example 44, 2-[(3-Morpholin-4-ylpropanoyl)amino]-1,3-benzothiazol-6-yl 2,6-dichlorobenzenesulfonate], the melting point turned out to be 179 °C. Next, `O=C(Nc1nc2cc(OS(=O)(=O)c3c(Cl)cccc3Cl)ccc2[nH]1)NC1CC1` (as salt: benzenesulfonate) [Example 12, 2-[(Cyclopropylcarbamoyl)amino]-1H-benzimidazol-5-yl 2,6-dichlorobenzenesulfonate]: 160 to 165 °C; `O=C(CCc1cccnc1)Nc1nc2cc(OS(=O)(=O)c3c(Cl)cccc3Cl)ccc2[nH]1` (as salt: benzenesulfonate) [Example 25, 2-[(3-Pyridin-3-ylpropanoyl)amino]-1H-benzimidazol-5-yl 2,6-dichlorobenzenesulfonate]: 188 °C. Next, `Nc1cc(Cl)cc(Cl)c1S(=O)(=O)Oc1ccc2nc(NC(=O)NCCN3CCOCC3)sc2c1` [Example 39, 2-{[(2-Morpholin-4-ylethyl)carbamoyl]amino}-1,3-benzothiazol-6-yl 2-amino-4,6-dichlorobenzenesulfonate]: 128 °C; `O=C(NCc1ccc(N2CCOCC2)cc1)Nc1nc2ccc(OS(=O)(=O)c3c(Cl)cccc3Cl)cc2s1` (as salt: benzenesulfonate) [Example 70, 2-{[(4-morpholin-4-ylbenzyl)carbamoyl]amino}-1,3-benzothiazol-6-yl 2,6-dichlorobenzenesulfonate]: 177 °C. As for `O=C(NCCN1CCOCC1)Nc1nc2cc(OS(=O)(=O)c3c(F)cccc3F)ccc2[nH]1` (as salt: benzenesulfonate) [Example 9, 2-{[(2-Morpholin-4-ylethyl)carbamoyl]amino}-1H-benzimidazol-5-yl 2,6-difluorobenzenesulfonate], the melting point lay in the range of 190 to 192 °C. The same measure for `O=C(NCc1ccccn1)Nc1nc2ccc(OS(=O)(=O)c3c(Cl)cccc3Cl)cc2s1` (as salt: benzenesulfonate) [Example 30, 2-{[(Pyridin-2-ylmethyl)carbamoyl]amino}-1,3-benzothiazol-6-yl 2,6-dichlorobenzenesulfonate]: 118 °C. The same measure for `O=C(CCc1cccnc1)Nc1nc2ccc(OS(=O)(=O)c3c(Cl)cccc3Cl)cc2s1` (as salt: benzenesulfonate) [Example 43, 2-[(3-Pyridin-3-ylpropanoyl)amino]-1,3-benzothiazol-6-yl 2,6-dichlorobenzenesulfonate]: 240 °C; for `CN1CCN(CCCNC(=O)Nc2nc3ccc(OS(=O)(=O)c4c(Cl)cccc4Cl)cc3s2)CC1` (as salt: benzenesulfonate) [Example 69, 2-({[3-(4-methylpiperazin-1-yl)propyl]carbamoyl}amino)-1,3-benzothiazol-6-yl 2,6-dichlorobenzenesulfonate]: 96.5 °C; for `O=C(NCCN1CCNCC1)Nc1nc2cc(OS(=O)(=O)c3c(Cl)cccc3Cl)ccc2[nH]1` (as salt: benzenesulfonate) [Example 21, 2-{[(2-piperazin-1-ylethyl)carbamoyl]amino}-1H-benzimidazol-5-yl 2,6-dichlorobenzenesulfonate]: 145 to 150 °C. The same measure for `O=C(Nc1nc2cc(OS(=O)(=O)c3c(F)cccc3F)ccc2[nH]1)C1CC1` (as salt: benzenesulfonate) [Example 29, 2-[(Cyclopropylcarbonyl)amino]-1H-benzimidazol-5-yl 2,6-difluorobenzenesulfonate]: 174 °C; for `O=C(NCc1ccccn1)Nc1nc2cc(OS(=O)(=O)c3c(Cl)cccc3Cl)ccc2[nH]1` (as salt: benzenesulfonate) [Example 15, 2-{[(Pyridin-2-ylmethyl)carbamoyl]amino}-1H-benzimidazol-5-yl 2,6-dichlorobenzenesulfonate]: 204 °C. Turning to `CC(C)(C)OC(=O)Nc1nc2cc(OS(=O)(=O)c3c(Cl)cccc3Cl)ccc2[nH]1` (as salt: benzenesulfonate) [Example 23, 2-[(tert-Butoxycarbonyl)amino]-1H-benzimidazol-5-yl 2,6-dichlorobenzenesulfonate], the melting point came to 205 °C. The same measure for `O=C(Nc1nc2ccc(OS(=O)(=O)c3c(F)cccc3F)cc2s1)C1CC1` (as salt: benzenesulfonate) [Example 41, 2-[(Cyclopropylcarbonyl)amino]-1,3-benzothiazol-6-yl 2,6-difluorobenzenesulfonate]: 145 °C; for `O=C(NCCCN1CCN(Cc2c(F)cccc2Cl)CC1)Nc1nc2ccc(OS(=O)(=O)c3c(Cl)cccc3Cl)cc2s1` (as salt: benzenesulfonate) [Example 67, 2-[({3-[4-(2-chloro-6-fluorobenzyl)piperazin-1-yl]propyl}carbamoyl)amino]-1,3-benzothiazol-6-yl 2,6-dichlorobenzenesulfonate]: 93 °C.
